Measurements reported in patent publication US5444161A, “Substrates for β-galactosidase” (Microgenics Corporation, priority 1989, dated 1995).
≈ marks a conversion by molar mass, not a printed value.

Legend:
[1] = Spontaneous hydrolysis rate of substrates (stability); assay type: physicochemical; conditions: room temperature; normalized to 10 μg/ml starting concentration of substrate
Description: (§1) Table 1 gives the absorbance wavelength maximum (λmax) for the substrate and the reaction product, the molar extinction coefficient ε for the substrate and the reaction product, the solubility, and the spontaneous hydrolysis rate of the new substrates (stability). ONPG, the standard β-galactosidase substrate, is listed for comparision.
*Hydrolysis is measured at room temperature. Results are normalized to 10
μg/ml starting concentration of substrate.

Solubility of substrates = assay type: physicochemical
Excerpt: as §1

[2] = Absorbance wavelength maximum and molar extinction coefficient of substrate and reaction product; assay type: physicochemical; conditions: for Product λmax / Product ε: reaction product; for Product ε / Substrate ε: molar extinction coefficient
Excerpt: as §1

β-galactosidase [3] = biological target: β-galactosidase (Escherichia coli, UniProt P00722); test: Kinetic properties of substrates with β-galactosidase; assay type: biochemical; conditions: for Km: four or five substrate concentrations; for Vm Ratio to ONPG: relative to ONPG
β-galactosidase (Escherichia coli, UniProt P00722), sequence (P00722 2-1024): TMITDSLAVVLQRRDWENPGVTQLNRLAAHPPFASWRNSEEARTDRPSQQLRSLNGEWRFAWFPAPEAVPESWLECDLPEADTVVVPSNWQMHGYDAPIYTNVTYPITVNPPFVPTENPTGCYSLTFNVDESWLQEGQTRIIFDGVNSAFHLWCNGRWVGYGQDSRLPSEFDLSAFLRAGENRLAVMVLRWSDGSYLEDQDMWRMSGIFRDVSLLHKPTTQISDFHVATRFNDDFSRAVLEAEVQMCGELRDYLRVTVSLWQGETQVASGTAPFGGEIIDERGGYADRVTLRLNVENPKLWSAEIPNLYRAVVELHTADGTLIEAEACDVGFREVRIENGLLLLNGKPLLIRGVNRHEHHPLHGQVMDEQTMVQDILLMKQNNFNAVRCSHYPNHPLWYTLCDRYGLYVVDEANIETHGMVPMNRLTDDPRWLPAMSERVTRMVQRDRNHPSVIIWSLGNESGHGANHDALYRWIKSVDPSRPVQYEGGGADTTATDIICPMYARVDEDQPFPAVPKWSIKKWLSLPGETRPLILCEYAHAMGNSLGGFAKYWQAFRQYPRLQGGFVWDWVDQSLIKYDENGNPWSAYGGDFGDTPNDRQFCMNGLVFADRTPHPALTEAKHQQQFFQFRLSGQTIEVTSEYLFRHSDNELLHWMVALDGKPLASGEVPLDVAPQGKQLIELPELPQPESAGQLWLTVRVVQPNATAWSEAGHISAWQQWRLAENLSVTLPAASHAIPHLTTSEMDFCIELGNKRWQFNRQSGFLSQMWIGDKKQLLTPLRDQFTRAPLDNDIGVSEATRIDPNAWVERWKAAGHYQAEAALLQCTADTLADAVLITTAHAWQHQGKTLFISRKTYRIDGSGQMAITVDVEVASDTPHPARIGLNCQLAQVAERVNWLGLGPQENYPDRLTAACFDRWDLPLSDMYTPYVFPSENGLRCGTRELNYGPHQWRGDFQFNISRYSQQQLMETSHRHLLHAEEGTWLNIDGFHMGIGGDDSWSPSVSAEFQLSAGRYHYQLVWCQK
Description: (§2) The ability of the subject compounds to act as substrates for β-galactosidase and ED28-digoxigenin+EA was measured and compared with the results obtained with ONPG. ED28-digoxigenin+EA are a β-galactosidase α fragment-digoxigenin conjugate and the α complementation acceptor, respectively. ED28-digoxigenin consists of β-galactosidase amino acids 1-46, with cysteines at positions 1 and 46, and digoxgenin conjugated to the cysteines. Assays involving ED and EA are described in greater detail in U.S. Pat. No. 4,708,929. E28-digoxigenin and EA are usually components of a CEDIA™ assay; however, in this set of experiments, antibodies are not present. Four or five substrate concentrations were used to obtain the results. The turnover figures are given for EA+ED28-digoxigenin, not β-galactosidase.

EA + ED28-digoxigenin = test: Kinetic properties of substrates with EA + ED28-digoxigenin; assay type: biochemical; conditions: for Km / Vm Ratio to ONPG: no antibodies; for Km: four or five substrate concentrations; for Vm Ratio to ONPG / Turnover % ONPG: relative to ONPG
Description: as §2

β-galactosidase [4] = test: CEDIA assays (T3, digoxin and folate), overall; assay type: biochemical
Excerpt: (§3) β-galactosidase-analyte conjugates may be used in a variety of diagnostic assays. The subject compounds may be used in conjunction with these assays. Such assays may be used to determine the presence and/or concentration of various compounds, including specific proteins, carbohydrates, and polynucleotides. The assays may be heterogenous, including ELISA assays. In particular the subject compounds may be employed in CEDIA™ assays. CEDIA™ assays measure the amount of an analyte by means of the ability of the analyte to affect the observed enzyme activity when employing an anti-analyte antibody binding reaction to a β-galactosidase α complementing fragment conjugated to analyte or cross reactive compound. In the absence of free analyte, the observed β-galactosidase activity is lower. Thus in CEDIA™ assays β-galactosidase activity increases as the amount of analyte increases. CEDIA™ assays make use of the α complementation phenomenon between ED and EA as described in detail in U.S. Pat. No. 4,708,929.
(§4) The ability of the new substrates to function in CEDIA™ assays was tested. All values are relative to reaction rates using OCNPG (o-chloro-nitrophenyl-β-D-galactopyranoside). […] CEDIA™ assays for T3 (the thyroid hormone, triiodothyronine), digoxin, and folate were performed.
The terms in table 3 are defined as follows. […]

β-galactosidase [5] = test: CEDIA digoxin assay with new substrates; assay type: biochemical; conditions: relative to OCNPG, [Substrate]/Km 4.0x; for % Open: absence of antibody; for % Inhib: inhibitory antibody; for High calib % Mod / High calib % Net: saturating analyte
Excerpt: as §3, §4
(§5) The terms in table 3 are defined as follows. [Substrate]/Km is the ratio of the concentation of substrate used in the assay to the Km of the enzyme for that substrate. The %open, %inhibition, %mod, and %net figures are all given relative to the results obtained with OCNPG.
(§6) %Open is the reaction rate in the absence of antibody. The figure given in table 3 is the reaction rate relative to the reaction rate obtained with OCNPG.
(§7) %Inhibition is defined as the difference between the reaction rate rate in the absence of antibody and the reaction rate in the presence of the inhibitory antibody found in the CEDIA™ assays, divided by the reaction rate in the absence of antibody. The figures given in table 3 are relative to the % inhibition figure obtained with OCNPG as substrate.
(§8) %Net is defined as the difference between the reaction rate of a CEDIA™ assay using the test substrate in the absence of analyte and presence of antibody and the same reaction in the presence of a saturating amount of analyte (i.e. maximum attainable reaction rate) and presence of antibody, divided by the difference between the reaction rate using OCNPG in the absence of analyte and presence of antibody, and the reaction rate with OCNPG using a saturating amount of analyte and presence of antibody.
(§9) %Mod is defined as the difference between the reaction rate of a CEDIA™ assay in the absence of analyte and presence of antibody and the same reaction in the presence of a saturating amount of analyte (i.e., maximum attainable reaction rate) and presence of antibody, divided by the same figure obtained for the reaction rate in the presence of a saturating amount analyte. The greater the %mod, the greater the range of analyte concentrations over which the assay will be effective. The figure given in Table 3 is the mod figure obtained for the new subtrate, divided by the %mod figure divided %mod figure obtained for OCNPG.

β-galactosidase [6] = test: CEDIA folate assay with new substrates; assay type: biochemical; conditions: relative to OCNPG, [Substrate]/Km: DNPG 3.2x, m-CN-NPG 2.5x, NGPG 3.2x; for % Open: absence of antibody; for % Inhib: inhibitory antibody; for High calib % Mod / High calib % Net: saturating analyte
Excerpt: as §3, §4, §5, §6, §7, §8, §9

β-galactosidase [7] = test: CEDIA T3 assay with new substrates; assay type: biochemical; conditions: for % Open / % Inhib / High calib % Mod / High calib % Net: T3 assay, relative to OCNPG, [Substrate]/Km: DNPG 3.3x, m-CN-NPG 4.1x, NGPG 2.0x; for % Open: absence of antibody; for % Inhib: inhibitory antibody; for High calib % Mod / High calib % Net: saturating analyte
Excerpt: as §3, §4, §5, §6, §7, §8, §9

SMILES	Hydrolysis [1] [mA/Day]	Solubility (Solubility of substrates) [µg/mL]	Product λmax [2] [nm]	Product ε [2] [OD/M]	Substrate λmax [2] [nm]	Substrate ε [2] [OD/M]	Vm Ratio to ONPG (β-galactosidase [3])	Km (EA + ED28-digoxigenin) [mg/mL]	Vm Ratio to ONPG (EA + ED28-digoxigenin)	Turnover % ONPG (EA + ED28-digoxigenin) [%]	% Open (β-galactosidase [5]) [%]	% Inhib (β-galactosidase [5]) [%]	High calib % Mod (β-galactosidase [5]) [%]	High calib % Net (β-galactosidase [5]) [%]	% Open (β-galactosidase [6]) [%]	% Inhib (β-galactosidase [6]) [%]	High calib % Mod (β-galactosidase [6]) [%]	High calib % Net (β-galactosidase [6]) [%]	% Open (β-galactosidase [7]) [%]	% Inhib (β-galactosidase [7]) [%]	other results
O=[N+]([O-])c1ccccc1O[C@@H]1O[C@H](CO)[C@H](O)[C@H](O)[C@H]1O [ONPG, o-nitrophenyl-β-D-galactopyranoside, reference compound]	0.4	10000 (≈ 33.2 mM)	414	3000	315	2000	1.0	0.15	1.0	100	–	–	–	–	–	–	–	–	–	–	Km (β-galactosidase [3]): 266 µM; signal in CEDIA assays (in words) (β-galactosidase [4]): exceptionally weak signal
O=[N+]([O-])c1ccc(O[C@@H]2O[C@H](CO)[C@H](O)[C@H](O)[C@H]2O)cc1[N+](=O)[O-] [3,4 DNPG, 3,4-Dinitrophenyl-β-D-galactopyranoside]	6	3000 (≈ 8.66 mM)	400	12400	280	6000	3.5	0.19	2.8	70	92	74	85	72	72	77	76	58	73	93	High calib % Mod (β-galactosidase [7]): 88%; High calib % Net (β-galactosidase [7]): 71%
COc1cc([N+](=O)[O-])ccc1O[C@@H]1O[C@H](CO)[C@H](O)[C@H](O)[C@H]1O [NGPG, o-Methoxy-p-nitrophenyl-β-D-galactopyranoside]	1	1000 (≈ 3.02 mM)	430	17600	298	7400	3.7	0.28	3.6	56	81	98	85	72	85	104	102	84	41	87	affinity compared with ONPG (in words) (β-galactosidase [3]): somewhat lower affinity than ONPG; affinity compared with ONPG (in words) (EA + ED28-digoxigenin): somewhat lower affinity than ONPG; High calib % Mod (β-galactosidase [7]): 82%; High calib % Net (β-galactosidase [7]): 37%
N#Cc1cc(O[C@@H]2O[C@H](CO)[C@H](O)[C@H](O)[C@H]2O)ccc1[N+](=O)[O-] [m-CN-NPG, m-Cyano-p-nitrophenyl-β-D-galactopyranoside]	5	< 8000	405	17000	308	9200	3.0	0.14	2.4	44	82	91	85	71	62	93	103	72	71	100	High calib % Mod (β-galactosidase [7]): 100%; High calib % Net (β-galactosidase [7]): 63%; T3 assay results on increasing substrate concentration (in words) (β-galactosidase [7]; substrate increased from 2.7×Km to 4.1×Km): improved
O=Cc1cc([N+](=O)[O-])ccc1O[C@@H]1O[C@H](CO)[C@H](O)[C@H](O)[C@H]1O [NSPG]	19	< 40000	382	16500	298	14900	3.2	0.14	3.0	54	–	–	–	–	–	–	–	–	–	–	solubility (in words) (Solubility of substrates): high aqueous solubility; Km (β-galactosidase [3]): 334 µM
